Tests used:
[1] = Stability of NLCE, CSNLCE and native EGCG in PBS at different pH and temperatures (HPLC); format: physicochemical
Procedure: EGCG was detected using a high-performance liquid chromatography (HPLC) system (Waters Corporation, Milford, Mass.) with a UV detector and a ZORBAX SB-C18.5 μm, 150*4.6 mm (Agilent,). The mobile phase was composed of 86% water, 12% acetonitrile, 2% ethyl acetate and 0.043% sulfuric acid, and the flow rate was 1 ml/minute. EGCG was detected at 254 nm.
To determine the stability of NLCE, CSNLCE and native EGCG in a pH range 1-7.4, Hydrochloric acid was added into 200 mM phosphate buffered saline to obtain four different pH solutions (pH=1, 3, 5, 7.4). All samples were then dissolved in these solutions to obtain a final EGCG concentration of 100 μM. The solutions were stored in tightly closed vials and incubated in a 37° C. water bath. EGCG concentrations were measured at 0 h, 0.5 h, 1 h, 1.5 h, 2 h, 2.5 hand 3 h.
[…] To simulate the cell growth, stability was evaluated in the cell culture medium RPMI1640 at 37° C. with or without cells, and with or without superoxide dismutases (SOD, 5 U/ml).

[2] = tested on: macrophages and macrophage-derived foam cells; conditions: in vitro; cited from earlier work
MCF7 breast cancer cells = test: Antiproliferative and proapoptotic effects in MCF7 cells; format: cell-based, human; conditions: at 10 μM or lower
Source text: The chemopreventive actions exerted by green tea are thought to be due to its major polyphenol, (−)-epigallocatechin-3-gallate (EGCG). However, the low level of stability and bioavailability in the body makes administering EGCG at chemopreventive doses unrealistic. EGCG encapsulated chitosan-coated nanoliposomes (CSLIPO-EGCG) were synthesized, and their antiproliferative and proapoptotic effects in MCF7 breast cancer cells were observed.

[3] = cited from earlier work
[4] = tested on: cuff-induced evolving atherosclerotic lesion; conditions: apolipoprotein E null mice, daily intraperitoneal 10 mg/kg body weight, after 21 days treatment; cited from earlier work
[5] = in vitro; cited from earlier work
[6] = tested on: THP-1 derived macrophages; test: EGCG content in THP-1 derived macrophages; format: cell-based, human; conditions: 100 μM
Procedure: Human monocytic THP-1 cell line was purchased from the American Type Tissue Culture Collection (ATCC, Rockville, Md.) and grew in a complete medium according to ATCC instructions. The complete medium consisted of RPMI medium supplemented with 10% fetal bovine serum and 0.05 mM of 2-mercaptoethanol. The cells were incubated in a 5% CO2 atmosphere at 37° C. THP-1 cells were differentiated into macrophages by incubating them with the complete medium containing 50 ng/ml PMA for 72 h.
Macrophages derived from THP-1 cells were treated with 100 μM of NLCE, CSNLCE and native EGCG in the complete medium with or without SOD (5 U/ml). After 2 or 4 h incubation at 4° C. or 37° C., cells were washed three times with ice-cold 1×PBS. The attached cells were scraped by 200 μl of 2% ascorbic acid (pH 3) and each well was washed with 200 μl of methanol, which was then combined with 2% ascorbic acid as a mixture. The volume of mixture was measured and internal standard epicatechin was added into the mixture. After one cycle of freezing and thawing, mixtures were sonicated for 2 min in an ice-cold bath using a sonicator (Branson, Inc.). The mixture was centrifuged at 10,000×g for 20 min at 4° C. The clear supernatant solution was collected and injected into the HPLC system. Precipitates were washed with 0.5 ml of deionized water to get rid of acid and dried in the chemical hood overnight. The dried cells were digested by 0.5 N NaOH. Total cellular protein levels were determined by using a bicinchoninic acid (BCA) kit (Pierce, Cramlington). Total cellular uptake was expressed as μg of EGCG per mg of protein.

[7] = Stability of EGCG in cell culture medium RPMI1640 at 37° C.; format: physicochemical; conditions: after 1 h incubation
Procedure: To determine the stability in different temperatures, NLCE, CSNLCE and native EGCG containing 100 μM of EGCG were dissolved in 1×PBS solution (pH 7.4) and incubated at 4° C., 22° C. and 37° C. for 14 d, 19 h and 3 h, respectively. To simulate the cell growth, stability was evaluated in the cell culture medium RPMI1640 at 37° C. with or without cells, and with or without superoxide dismutases (SOD, 5 U/ml).

macrophage CD36 = macrophage CD36 (Homo sapiens, UniProt P16671); conditions: cited from earlier work
Chain of macrophage CD36 (P16671 whole entry): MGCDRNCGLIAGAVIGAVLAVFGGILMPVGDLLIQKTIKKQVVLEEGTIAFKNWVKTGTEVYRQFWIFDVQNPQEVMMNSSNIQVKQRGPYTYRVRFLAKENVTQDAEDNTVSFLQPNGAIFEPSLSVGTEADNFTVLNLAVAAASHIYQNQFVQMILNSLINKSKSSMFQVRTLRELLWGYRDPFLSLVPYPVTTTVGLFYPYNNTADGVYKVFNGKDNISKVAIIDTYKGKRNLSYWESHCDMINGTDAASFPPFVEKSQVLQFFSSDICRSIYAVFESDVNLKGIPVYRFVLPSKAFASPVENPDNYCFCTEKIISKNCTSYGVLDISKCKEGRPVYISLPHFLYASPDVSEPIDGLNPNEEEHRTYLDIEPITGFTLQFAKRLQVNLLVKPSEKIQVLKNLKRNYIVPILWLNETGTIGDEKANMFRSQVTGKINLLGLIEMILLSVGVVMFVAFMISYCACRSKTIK

| Compound | EGCG left ([1]; 100 μM, 1×PBS pH 7.4, 37° C., after 3 h) | stability in acidic pH ([1]; 100 μM, pH 1.0 to 5.0, 37° C., 3 h) | stability in neutral pH ([1]; 100 μM, pH 7.4, 37° C., after 3 h) | EGCG degraded ([1]; 4° C., after 19 hours, same initial concentration) | EGCG left ([1]; after incubating for 8 h at 23° C.) | order of stability of EGCG at the same pH ([1]; in all conditions) | apoptosis of macrophages and macrophage-derived foam cells [2] | expression and production of inflammatory factors [2] | antiproliferative and proapoptotic effectiveness (MCF7 breast cancer cells) | peak plasma EGCG concentration ([3]; after drinking 2 cups of green tea) | absolute oral bioavailability ([3]; after drinking tea containing catechins at 10 mg/kg body weight, humans and research animals) | reduction of atherosclerotic lesion size [4] | stability in water and physiological fluid [5] | EGCG content in macrophages ([6]; complete medium containing 5 U/ml of SOD, 2 h incubation at 37° C.) | EGCG content in THP-1 derived macrophages ([6]; complete medium without SOD, 2 h incubation at 37° C.) | EGCG content in macrophages ([6]; in the presence of SOD, after 4 h) | EGCG left [7] | CD36 binding affinity conferred, relative potency (macrophage CD36) | binding affinity to macrophage CD36 (macrophage CD36) |
| --- | --- | --- | --- | --- | --- | --- | --- | --- | --- | --- | --- | --- | --- | --- | --- | --- | --- | --- | --- |
| O=C(O[C@@H]1Cc2c(O)cc(O)cc2O[C@@H]1c1cc(O)c(O)c(O)c1)c1cc(O)c(O)c(O)c1 [EGCG, (−)-epigallocatechin-3-gallate] | completely degraded | stable | not stable and could not be detected | 91% | 1.52% | CSNLCE>NLCE>native EGCG | induce apoptosis | inhibit | doesn't have any beneficial effects | 0.15 µM | about 0.1% | 55% | unstable | 0.098 μg/mg protein | 0.031 μg/mg protein | 0.109 μg/mg protein | 3.7% | – | – |
| 1-Palmitoyl-2-(11-carboxy-9-oxoundec-10-enoyl)-sn-glycero-3-phosphatidylcholine [KDdiA-PC] | – | – | – | – | – | – | – | – | – | – | – | – | – | – | – | – | – | more potently than any hydroperoxy phospholipid species | high binding affinity |
| 5-keto-6-octendioic acid esters of 2-lyso-PC [KOdiA-PC] | – | – | – | – | – | – | – | – | – | – | – | – | – | – | – | – | – | – | high binding affinity |
